Measured values reported in ChEMBL document CHEMBL5550116, “Discovery of novel macrocyclic derivatives as potent and selective cyclin-dependent kinase 2 inhibitors” (Bioorg Med Chem, 2024).
Values belong to the compound of their own block, whether it stands above or below them. Calls of active or inactive are those of the source. No cut-off for these calls is given here.

What was measured:
[1] = molecular target: Cyclin-dependent kinase 2/cyclin E1 (Homo sapiens, UniProt P24941); test: Inhibition of full length N-terminal GST-tagged human CDK2 (1 to 298 residues)/cyclin E1 (1 to 410 residues) expressed in Sf21 cells using histone H1 as substrate preincubated for 10 mins followed by substrate and ATP addition and measured after 60 mins by ADP-Glo reagent based microplate reader assay
[2] = molecular target: Cyclin-dependent kinase 5/CDK5 activator 1 (Homo sapiens, UniProt Q00535); test: Inhibition of human CDK5/p25NCK using histone H1 as substrate preincubated for 10 mins followed by substrate and ATP addition and measured after 60 mins by ADP-Glo reagent based microplate reader assay; type: protein-complex assay
Cyclin-dependent kinase 5/CDK5 activator 1, sequence (Q00535 whole entry): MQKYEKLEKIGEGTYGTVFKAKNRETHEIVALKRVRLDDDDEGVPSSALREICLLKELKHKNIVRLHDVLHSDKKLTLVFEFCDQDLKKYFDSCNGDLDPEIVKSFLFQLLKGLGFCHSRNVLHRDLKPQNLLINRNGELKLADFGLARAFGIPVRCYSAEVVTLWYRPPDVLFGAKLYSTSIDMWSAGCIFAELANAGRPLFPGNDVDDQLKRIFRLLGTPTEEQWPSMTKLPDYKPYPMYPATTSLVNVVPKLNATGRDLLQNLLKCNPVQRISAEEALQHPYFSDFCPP
Cyclin-dependent kinase 5/CDK5 activator 1, sequence (Q15078 whole entry, further chain): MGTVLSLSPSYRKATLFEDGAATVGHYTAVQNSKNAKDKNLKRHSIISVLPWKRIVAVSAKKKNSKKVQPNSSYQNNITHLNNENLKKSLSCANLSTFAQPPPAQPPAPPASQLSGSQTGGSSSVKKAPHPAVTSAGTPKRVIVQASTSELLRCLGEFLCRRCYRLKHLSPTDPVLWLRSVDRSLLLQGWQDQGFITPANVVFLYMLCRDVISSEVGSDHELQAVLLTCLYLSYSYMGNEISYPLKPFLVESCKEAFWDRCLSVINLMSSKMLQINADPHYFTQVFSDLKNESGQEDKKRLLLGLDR

[3] = molecular target: CDK7/Cyclin H/MNAT1 (Homo sapiens, UniProt P50613); test: (§1) Inhibition of recombinant human His-tagged CDK7/cyclin H/MNAT1 expressed in baculovirus expression system using histone H1 as substrate preincubated for 10 mins followed by substrate and ATP addition and measured after 60 mins by ADP-Glo reagent based microplate reader assay
CDK7/Cyclin H/MNAT1, sequence (P51946 whole entry): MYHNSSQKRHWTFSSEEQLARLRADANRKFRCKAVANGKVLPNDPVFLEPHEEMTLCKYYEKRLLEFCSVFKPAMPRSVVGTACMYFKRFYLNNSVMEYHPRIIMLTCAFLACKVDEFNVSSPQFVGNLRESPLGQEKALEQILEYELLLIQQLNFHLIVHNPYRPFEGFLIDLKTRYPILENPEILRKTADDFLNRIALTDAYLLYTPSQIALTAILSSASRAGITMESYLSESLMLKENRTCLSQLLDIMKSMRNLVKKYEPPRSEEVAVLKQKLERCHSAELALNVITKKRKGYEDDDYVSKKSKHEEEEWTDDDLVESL
CDK7/Cyclin H/MNAT1, sequence (P50613 whole entry): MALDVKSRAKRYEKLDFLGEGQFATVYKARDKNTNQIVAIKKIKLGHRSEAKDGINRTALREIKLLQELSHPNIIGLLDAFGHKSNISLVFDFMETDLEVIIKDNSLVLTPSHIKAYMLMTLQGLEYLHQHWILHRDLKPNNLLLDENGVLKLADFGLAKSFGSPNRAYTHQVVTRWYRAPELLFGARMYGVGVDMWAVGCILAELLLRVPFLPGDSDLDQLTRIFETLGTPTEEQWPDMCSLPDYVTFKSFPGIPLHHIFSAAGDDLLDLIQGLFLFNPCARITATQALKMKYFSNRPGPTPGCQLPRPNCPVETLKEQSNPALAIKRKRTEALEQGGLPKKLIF
CDK7/Cyclin H/MNAT1, sequence (P51948 whole entry, further chain): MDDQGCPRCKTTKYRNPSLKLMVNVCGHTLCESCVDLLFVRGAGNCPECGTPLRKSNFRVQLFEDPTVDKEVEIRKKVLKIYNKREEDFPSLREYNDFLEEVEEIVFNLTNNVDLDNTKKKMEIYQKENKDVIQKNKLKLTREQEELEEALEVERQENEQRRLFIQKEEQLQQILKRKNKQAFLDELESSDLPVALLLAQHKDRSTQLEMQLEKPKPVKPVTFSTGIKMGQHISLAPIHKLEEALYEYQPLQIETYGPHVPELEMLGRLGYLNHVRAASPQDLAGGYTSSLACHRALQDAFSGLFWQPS

[4] = Metabolic stability in mouse liver microsomes assessed as half life at 1 uM preincubated with compound for 10 mins followed by beta-NADPH addition measured upto 60 mins by LC-MS/MS analysis; type: ADME, Microsome; settings: time < 70 min
[5] = tested on: MKN-1; test: Antiproliferative activity against human MKN-1 cells incubated for 5 days by CCK-8 assay; type: functional, cell-based; settings: MKN-1, 120 h
[6] = molecular target: CDK9/cyclin T1 (Homo sapiens, UniProt P50750); test: as §1, with “of full-length” for “of”, “recombinant N-terminal GST-tagged” for “recombinant”, “CDK9 (1 to 372 residues)/His-tagged cyclinT1 (1 to 726 residues)” for “His-tagged CDK7/cyclin H/MNAT1”
CDK9/cyclin T1, sequence (O60563 whole entry, the tested form may be a part): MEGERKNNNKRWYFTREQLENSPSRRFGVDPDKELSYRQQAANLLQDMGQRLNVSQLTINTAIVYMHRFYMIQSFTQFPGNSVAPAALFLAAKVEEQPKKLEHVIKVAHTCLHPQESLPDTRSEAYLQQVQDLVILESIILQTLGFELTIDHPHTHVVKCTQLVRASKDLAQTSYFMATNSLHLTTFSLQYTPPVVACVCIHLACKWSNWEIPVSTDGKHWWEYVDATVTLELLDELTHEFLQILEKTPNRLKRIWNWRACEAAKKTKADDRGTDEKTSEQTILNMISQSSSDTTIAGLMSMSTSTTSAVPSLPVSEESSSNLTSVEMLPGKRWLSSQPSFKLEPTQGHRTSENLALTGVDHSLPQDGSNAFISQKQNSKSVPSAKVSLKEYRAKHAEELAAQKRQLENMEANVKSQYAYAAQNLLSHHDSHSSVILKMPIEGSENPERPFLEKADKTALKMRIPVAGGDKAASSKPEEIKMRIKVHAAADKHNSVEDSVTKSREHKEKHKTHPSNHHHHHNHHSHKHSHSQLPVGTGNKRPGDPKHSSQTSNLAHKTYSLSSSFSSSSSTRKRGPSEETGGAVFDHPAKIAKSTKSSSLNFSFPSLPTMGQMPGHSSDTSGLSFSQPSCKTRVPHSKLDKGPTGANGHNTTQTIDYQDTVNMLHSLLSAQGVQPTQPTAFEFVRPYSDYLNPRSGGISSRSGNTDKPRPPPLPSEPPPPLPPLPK
CDK9/cyclin T1, sequence (P50750 whole entry, the tested form may be a part): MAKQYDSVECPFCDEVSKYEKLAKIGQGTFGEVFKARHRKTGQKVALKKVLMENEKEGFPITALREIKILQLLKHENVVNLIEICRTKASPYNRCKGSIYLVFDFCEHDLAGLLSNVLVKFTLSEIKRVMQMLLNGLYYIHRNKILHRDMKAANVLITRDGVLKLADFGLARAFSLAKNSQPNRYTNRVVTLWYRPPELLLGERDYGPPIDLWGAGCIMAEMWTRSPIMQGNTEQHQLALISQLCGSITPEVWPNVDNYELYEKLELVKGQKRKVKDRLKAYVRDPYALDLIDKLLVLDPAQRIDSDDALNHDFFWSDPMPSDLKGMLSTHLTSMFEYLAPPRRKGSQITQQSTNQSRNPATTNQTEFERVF

[7] = Clearance in CD1 mouse plasma at 1 mg/kg, iv measured upto 24 hrs by LC-MS/MS analysis; type: ADME, organism-based
[8] = molecular target: Cyclin-dependent kinase 2 (Homo sapiens) (UniProt P24941); test: Inhibition of CDK2 in human MKN-1 cells assessed as reduction in Rb phosphorylation at Ser780 incubated for 24 hrs by Western blotting analysis; type: cell-based; settings: dose 37-3000 nM
[9] = tested on: MKN-1; test: Induction of cell cycle arrest in human MKN-1 cells assessed as accumulation of cells at G0/G1 phase at 111.1 to 333.3 nM incubated for 24 hrs by PI staining based flow cytometry analysis; type: functional; settings: dose 111.1-333.3 nM
[10] = molecular target: CDK12/Cyclin K (Homo sapiens) (UniProt O75909+Q9NYV4); test: Inhibition of CDK12/Cyclin K (unknown origin) at 100 nM by HTRF assay; type: protein-complex assay
[11] = molecular target: Cyclin-dependent kinase 7 (Homo sapiens) (UniProt P50613); test: Inhibition of CDK7 (unknown origin) at 1 uM
Cyclin-dependent kinase 7 (Homo sapiens), sequence (P50613 whole entry): as the sequence (P50613 whole entry) above

[12] = Metabolic stability in human liver microsomes assessed as half life at 1 uM preincubated with compound for 10 mins followed by beta-NADPH addition measured upto 60 mins by LC-MS/MS analysis; type: ADME, Microsome; settings: time < 70 min
[13] = molecular target: Cyclin-dependent kinase 5 (Homo sapiens) (UniProt Q00535); test: Inhibition of CDK5 (unknown origin) at 1 uM
Cyclin-dependent kinase 5 (Homo sapiens), sequence (Q00535 whole entry, looked up): as the sequence (Q00535 whole entry) above

[14] = species on record: Homo sapiens; test: Inhibition of CDK1/cyclin A2 (unknown origin) at 100 nM by ADP-Glo assay
[15] = tested on: MKN-1; test: Induction of cell cycle arrest in human MKN-1 cells assessed as reduction in G2/M phase cells at 111.1 to 333.3 nM incubated for 24 hrs by PI staining based flow cytometry analysis; type: functional; settings: dose 111.1-333.3 nM
[16] = molecular target: Cyclin-dependent kinase 1 (Homo sapiens) (UniProt P06493); test: Inhibition of CDK1 (unknown origin) at 1 uM
Cyclin-dependent kinase 1 (Homo sapiens), sequence (P06493 whole entry, looked up): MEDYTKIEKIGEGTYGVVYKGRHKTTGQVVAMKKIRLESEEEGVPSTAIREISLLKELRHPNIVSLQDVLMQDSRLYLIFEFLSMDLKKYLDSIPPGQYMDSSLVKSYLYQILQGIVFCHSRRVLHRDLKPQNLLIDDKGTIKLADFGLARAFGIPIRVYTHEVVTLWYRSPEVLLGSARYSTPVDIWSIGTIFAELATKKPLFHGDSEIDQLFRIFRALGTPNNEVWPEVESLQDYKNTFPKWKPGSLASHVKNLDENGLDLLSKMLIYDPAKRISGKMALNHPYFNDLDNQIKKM

[17] = molecular target: Cyclin-dependent kinase 9 (Homo sapiens) (UniProt P50750); test: Inhibition of CDK9 (unknown origin) at 1 uM
Cyclin-dependent kinase 9 (Homo sapiens), sequence (P50750 whole entry): as the sequence (P50750 whole entry, the tested form may be a part) above

[18] = molecular target: Cyclin-dependent kinase 13 (Homo sapiens) (UniProt Q14004); test: Inhibition of CDK13 (unknown origin) at 1 uM
Cyclin-dependent kinase 13 (Homo sapiens), sequence (Q14004 whole entry, looked up): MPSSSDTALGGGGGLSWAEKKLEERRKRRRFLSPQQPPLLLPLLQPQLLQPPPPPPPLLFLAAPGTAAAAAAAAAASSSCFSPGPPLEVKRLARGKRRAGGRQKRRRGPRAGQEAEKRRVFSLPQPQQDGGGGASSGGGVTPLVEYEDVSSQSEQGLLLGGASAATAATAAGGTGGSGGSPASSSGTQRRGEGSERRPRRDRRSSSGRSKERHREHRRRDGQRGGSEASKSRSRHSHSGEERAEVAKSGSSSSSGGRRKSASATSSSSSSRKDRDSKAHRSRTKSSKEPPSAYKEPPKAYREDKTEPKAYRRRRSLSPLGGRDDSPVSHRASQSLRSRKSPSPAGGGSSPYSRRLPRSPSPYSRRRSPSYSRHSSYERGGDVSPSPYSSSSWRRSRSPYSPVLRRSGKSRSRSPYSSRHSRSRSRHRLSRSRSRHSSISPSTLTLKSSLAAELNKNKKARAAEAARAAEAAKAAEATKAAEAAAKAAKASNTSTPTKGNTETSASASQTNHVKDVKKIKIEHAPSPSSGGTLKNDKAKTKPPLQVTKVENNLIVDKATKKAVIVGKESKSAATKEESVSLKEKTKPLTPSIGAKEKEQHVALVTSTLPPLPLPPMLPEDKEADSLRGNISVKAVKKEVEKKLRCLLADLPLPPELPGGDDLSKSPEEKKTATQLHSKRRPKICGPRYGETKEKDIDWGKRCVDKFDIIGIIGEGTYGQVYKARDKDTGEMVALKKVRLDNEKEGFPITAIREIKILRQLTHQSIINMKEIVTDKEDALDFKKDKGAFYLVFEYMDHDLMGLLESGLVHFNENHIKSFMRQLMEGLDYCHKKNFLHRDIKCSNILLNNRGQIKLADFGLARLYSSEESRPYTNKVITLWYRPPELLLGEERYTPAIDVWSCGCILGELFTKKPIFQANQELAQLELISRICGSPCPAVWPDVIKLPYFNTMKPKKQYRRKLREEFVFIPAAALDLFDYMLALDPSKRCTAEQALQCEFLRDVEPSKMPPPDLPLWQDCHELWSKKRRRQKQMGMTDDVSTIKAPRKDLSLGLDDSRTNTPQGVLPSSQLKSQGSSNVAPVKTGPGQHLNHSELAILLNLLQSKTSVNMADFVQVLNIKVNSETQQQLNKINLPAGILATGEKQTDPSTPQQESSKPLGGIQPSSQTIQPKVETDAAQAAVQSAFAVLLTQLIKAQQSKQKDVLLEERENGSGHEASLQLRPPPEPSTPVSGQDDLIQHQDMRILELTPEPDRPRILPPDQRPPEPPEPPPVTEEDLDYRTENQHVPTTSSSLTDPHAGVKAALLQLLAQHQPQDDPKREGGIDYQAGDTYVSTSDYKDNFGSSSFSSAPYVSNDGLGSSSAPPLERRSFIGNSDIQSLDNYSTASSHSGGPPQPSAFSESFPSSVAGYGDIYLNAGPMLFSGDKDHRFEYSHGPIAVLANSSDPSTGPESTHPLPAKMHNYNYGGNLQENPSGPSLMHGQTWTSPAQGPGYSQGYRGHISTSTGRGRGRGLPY

[19] = Drug uptake in CD1 mouse plasma at 10 mg/kg, po measured upto 24 hrs by LC-MS/MS analysis; type: ADME, organism-based; settings: in vivo
[20] = molecular target: Cyclin-dependent kinase 2 (Homo sapiens) (UniProt P24941); test: Inhibition of CDK2 in human MKN-1 cells assessed as reduction in Rb phosphorylation at Ser807/11 incubated for 24 hrs by Western blotting analysis; type: cell-based; settings: dose 37-3000 nM
[21] = molecular target: Cyclin-dependent kinase 12 (Homo sapiens) (UniProt Q9NYV4); test: Inhibition of CDK12 (unknown origin) at 1 uM

SMILES: CC(C)c1cnn2c3nc(nc12)N(CCC1CNC1)CCCCCOc1cc(S(C)(=O)=O)ccc1CN3
Ki [1]: 0.0353 µM

SMILES: CC(C)c1cnn2c3nc(nc12)N(CCC1CNC1)CCCCCOc1ccccc1CN3
Ki [1]: 0.0484 µM | Ki [2]: 0.0287 µM

SMILES: CC(C)c1cnn2c3nc(nc12)N(CC1CCOCC1)CCCCCOc1ccccc1CN3
Ki [1]: 0.426 µM

SMILES: CC(C)c1cnn2c3nc(nc12)N(CC1CNC1)CCCCCOc1cc(C#N)ccc1CN3
Ki [1]: 0.0358 µM

SMILES: CC(C)c1cnn2c3nc(nc12)N(C1CNC1)CCCCCOc1ccccc1CN3
Ki [1]: 0.158 µM

SMILES: CC(C)c1cnn2c3nc(nc12)N(CC(C)(C)CN)CCCCCOc1ccccc1CN3
Ki [1]: 0.0496 µM | Ki [2]: 0.0603 µM

SMILES: CC(C)c1cnn2c3nc(nc12)N(CC1CCNCC1)CCCCCOc1ccc(S(C)(=O)=O)cc1CN3
Ki [1]: 0.0832 µM

SMILES: CC(C)c1cnn2c3nc(nc12)N(CC1CCNCC1)CCCCCOc1ccc(F)cc1CN3
Ki [1]: 0.0031 µM | Ki [2]: 0.0025 µM

SMILES: CC(C)c1cnn2c3nc(nc12)N(CC1CCNCC1)CCCCCOc1cc(S(C)(=O)=O)ccc1CN3
Ki [3]: 0.0213 µM | Ki [1]: 0.0049 µM | Ki [2]: 0.0024 µM | Ki [6]: 0.0027 µM

SMILES: CC(C)c1cnn2c3nc(nc12)N(CC1CNC1)CCCCCOc1cc(F)c(F)cc1CN3
Ki [1]: 0.0034 µM | half-life at 1 µM [4]: 22 min | EC50 [5]: 1.46 µM

SMILES: CC(C)c1cnn2c3nc(nc12)N(CC1CNC1)CCCCCOc1ccccc1CN3
Ki [3]: 0.101 µM | Ki [1]: 0.003 µM | Ki [2]: 0.0307 µM | half-life at 1 µM [12]: 36.1 min | half-life at 1 µM [4]: 61.9 min | Ki [6]: 0.06 µM | EC50 [5]: 3.4 µM

SMILES: CC(C)c1cnn2c3nc(nc12)N(C[C@@H]1CNC[C@H]1O)CCCCCOc1ccccc1CN3
Ki [3]: 0.0028 µM | Ki [1]: 0.0007 µM | Ki [2]: 0.0009 µM

More lines, main results first:

Ki [1]: 0.0029 µM | Ki [2]: 0.0044 µM
SMILES: CC(C)c1cnn2c3nc(nc12)N(CC1CCNCC1)CCCCCOc1cc(F)c(F)cc1CN3

Ki [1]: 0.0461 µM | Ki [2]: 0.14 µM
SMILES: CC(C)c1cnn2c3nc(nc12)N(CC1CCCNC1)CCCCCOc1ccccc1CN3 (configuration not stated)

Ki [3]: 0.0095 µM | Ki [1]: 0.001 µM | Ki [2]: 0.0036 µM
SMILES: CC(C)c1cnn2c3nc(nc12)N(CC1CCNC1)CCCCCOc1ccccc1CN3 (configuration not stated)

Ki [1]: 0.001 µM | half-life at 1 µM [4]: 15.2 min | EC50 [5]: 0.94 µM
SMILES: CC(C)c1cnn2c3nc(nc12)N(CC1CNC1)CCCCCOc1ccc(F)cc1CN3

Ki [1]: 0.0154 µM
SMILES: CC(C)c1cnn2c3nc(nc12)N(CC1CNC1)CCCCCOc1cc(C(F)(F)F)ccc1CN3

Ki [1]: > 1 µM
SMILES: CC(C)c1cnn2c3nc(nc12)N(CC1CNC1)CCCCCOc1ccc(C#N)cc1CN3

Ki [3]: 0.0602 µM | Ki [1]: 0.0027 µM | Ki [2]: 0.001 µM | Ki [6]: 0.0163 µM
SMILES: CC(C)c1cnn2c3nc(nc12)N(CC1CCN(C)CC1)CCCCCOc1ccccc1CN3

Ki [3]: 0.0434 µM | Ki [1]: 0.0094 µM | Ki [2]: 0.0044 µM | Ki [6]: 0.0058 µM
SMILES: CC(C)c1cnn2c3nc(nc12)N(CC1CCNCC1)CCCCCOc1cc(C#N)ccc1CN3

clearance [7]: 9.54 L/h/kg | Ki [1]: 0.001 µM | inhibition [8]: Dose-Dependent Effect | inhibition [10]: Active | inhibition [11]: Active | half-life at 1 µM [12]: 122 min | half-life at 1 µM [4]: 112 min | inhibition [13]: Active | inhibition [14]: Active | inhibition [16]: Active | inhibition [17]: Active | inhibition [18]: Active | Drug uptake [19]: Not Active | inhibition [20]: Dose-Dependent Effect | EC50 [5]: 0.31 µM | inhibition [21]: Active
SMILES: CC(C)c1cnn2c3nc(nc12)N(CC1CNC1)CCCCCOc1cc(S(C)(=O)=O)ccc1CN3
Activity [9]: Active | Activity [15]: Active

Ki [3]: 0.161 µM | Ki [1]: 0.0151 µM | Ki [2]: 0.0421 µM | Ki [6]: 0.0433 µM
SMILES: CC(C)c1cnn2c3nc(nc12)N(CC1CCNCC1)CCCCCOc1cc(C(F)(F)F)ccc1CN3

clearance [7]: 9.54 L/h/kg | Ki [1]: 0.0036 µM | inhibition [8]: Dose-Dependent Effect | half-life at 1 µM [12]: 46.2 min | half-life at 1 µM [4]: 6.3 min | Drug uptake [19]: Not Active | inhibition [20]: Dose-Dependent Effect | EC50 [5]: 0.74 µM
SMILES: CC(C)n1cnc2c3nc(nc21)N(CC1CNC1)CCCCCOc1cc(S(C)(=O)=O)ccc1CN3
Activity [9]: Active | Activity [15]: Active

Ki [1]: 0.0923 µM
SMILES: CC(C)c1cnn2c3nc(nc12)N(CC1CCNCC1)CCCCCOc1ccc(C(F)(F)F)cc1CN3

Ki [1]: > 1 µM
SMILES: CC(C)c1cnn2c3nc(nc12)N(CC1CNC1)CCCCCOc1ccc(C(F)(F)F)cc1CN3
